Columns and labels:
[1] = Mouse Abdominal Constriction Assay (phenylquinone writhing); format: in vivo, male CF-1 mice; conditions: for % Analgesia: 1.5 h post-dose
Description: Compounds of the present invention are tested for analgesic activity using the mouse abdominal constriction assay. This assay is described in Hendershot and Forsaith, J. Pharmacol. Exo.
Male CF-1 mice (Charles River Breeding Laboratories, Inc.), weighing approximately 20 grams and food fasted overnight, are used in these assays. Test compounds are prepared for oral (p.o.) or subcutaneous (s.c.) administration, with compounds of the present invention being prepared in acidified (1N acetic acid) distilled deionized water so that the appropriate dose is given in 0.2 mls to a 20 gram mouse.
Ten minutes after the i.p. injection of phenylquinone, the number of full body writhes are counted for the succeeding ten minutes. Percent analgesia in this assay is calculated as follows: [formula]

[2] = Oral syrup in human (Example IX); format: in vivo; conditions: one teaspoon of syrup, 70 kg adult human
Description: (§1) A composition for oral administration is prepared by combining the following ingredients:
The above ingredients are combined to produce a syrup and are packaged under sterile conditions in 6 oz. bottles.

[3] = Rodent Hot Plate Test; format: in vivo, male Sprague-Dawley rats
Description: The degree of thermal analgesia obtained is determined using the "rodent hot plate test" (RHP). The RHP system is designed to detect and evaluate agents which elevate the threshold for the perception of pain. Classically, this method has been utilized primarily to evaluate opioid (narcotic) analgesic agents, such as morphine.
Male Sprague-Dawley rats (Charles River Breeding Laboratories Inc.) weighing between 100 and 125 grams upon arrival are used to evaluate the compounds of the present invention. Animals are double housed in stainless steel cages, and are fed Purina Rat Chow and tap water ad libitum. The animals are food fasted the afternoon proceeding the day of the study, and food is returned 5 hours post-treatment. Animals not being dosed by oral gavage are not fasted.
The apparatus for evaluating analgesic activity consists of an insulated copper hot plate whose surface is maintained at 55°±0.5° C. by a circulating water bath. A bottomless glass container (12" (30 cm) tall by 8" (20 cm) diameter) is used to restrict the animal to a defined area of the hot plate. After dosing, the animal is placed through the top opening of the container, and a stop watch is started when the animal makes contact with the plate. The stop-watch is stopped upon either of the following visually observed end points: (1) licking or biting of either hind paw, or (2) jumping. If the jump is not successful but both hind paws leave the surface of the plate in an effort to jump, this is considered jumping. The stop-watch is stopped at the end point and the animal is immediately removed from the hot plate. The time (latency) between the initial contact of the animal on the hot plate and the endpoint is recorded.
Prior to dosing, animals are tested on the hot plate. This is denoted as pretest or base line latency. Usually, the animals are dosed by oral gavage, using a 1 cubic cm glass syringe connected to a size 8 french catheter. The dose volume is 5 ml/kg. On occasion, the animals are dosed by either subcutaneous administration or intravenous injection. Using the subcutaneous administration, a 1 ml tuberculin syringe is connected to a 25 gauge 5/8 inch needle, and injected under the skin in the neck or back region. For intravenous dosing, a 1 ml tuberculin syringe is connected to a 25 gauge 3/4 inch winged infusion set, and injected into the tail vein. The dose volume for subcutaneous and intravenous routes is 1 ml/kg. The latency times are typically recorded at 1.5, 3, 5, and 24 hours post-treatment. Much shorter times are recorded for an intravenous administration.

[4] = Oral soft gelatin capsules in human (Example VIII); format: in vivo; conditions: two oral capsules, 225 mg of composition each, 60 kg human
Description: as §1
The octadecenamide is dissolved in the sesame oil with the aid of sonication and is packaged in soft gelatin capsules using methods known in the art.

[5] = Carrageenan Rat Paw Edema Test; format: in vivo, male Sprague Dawley rats; conditions: oral (stomach tube), 1 h before carrageenan, paw volume 4 h after carrageenan
Description: Compounds of the present invention are tested for anti-inflammatory activity using the Carrageenan Rat Paw Edema Test.
Male Sprague Dawley rats (Charles River Breeding Laboratories Inc.) are weighed and food fasted overnight. The animals are divided into four to six groups of six animals each according to body weights, average about 145 g, so that each group has about the same average weight (within 10 g).
The following morning five ml of water is dosed orally via stomach tube to each animal to facilitate paw swelling. Thirty minutes later the animals are dosed with the test compound and then placed in individual cages. The compound of the present invention is dissolved in distilled deionized water with 1 equivalent of 1N acetic acid and delivered via stomach tube in 1 ml volume.
One hour after dosing the test compound, the animals are placed in a plastic restrainer and 50 ul of a 1% (w/w) carrageenan solution in 0.9% saline is injected into the ventral surface of the left rear paw. Paw volumes (0 time) are determined on both hind paws with a mercury displacement device equipped with a transducer and digitizer following the carrageenan injection. Four hours after the carrageenan injection, the paw volumes are again determined.
The results are expressed as percent inhibition of the mean paw volume of the test group relative to the control group according to the formula:
(C-T a..n)/C×100=Percent Inhibition
where C is the average difference in paw volume before and after carrageenan-induced swelling, and
Ta..n is the difference in paw swelling in the treated animals (a..n). Statistical differences are determined by one way analysis of variance.

[6] = unless administered in toxic quantities; antipyretic analgesics; cited from earlier work

CCCCCCCC/C=C\CCCCCCCC(=O)NCc1ccc(OCCN)c(OC)c1 [N-((4-(2-aminoethoxy)-3-methoxyphenyl)-methyl)-9Z-octadecenamide]
% Analgesia ([1]; 1 mg/kg subcutaneous): 22.3%
% Analgesia ([1]; 2 mg/kg subcutaneous): -13.7%
% Analgesia ([1]; 4 mg/kg subcutaneous): 34.3%
% Analgesia ([1]; 8 mg/kg subcutaneous): 57.8%
% Analgesia ([1]; 10 mg/kg oral): 55.8%
% Analgesia ([1]; 10 mg/kg subcutaneous): 91.4%
% Analgesia ([1]; 25 mg/kg oral): 71.7%
% Analgesia ([1]; 75 mg/kg oral): 88.3%
% Analgesia ([1]; 100 mg/kg subcutaneous): 99.0%
% Analgesia ([1]; 150 mg/kg oral): 95.5%
% Analgesia ([1]; 300 mg/kg oral): 93.2%
analgesic potency compared with N-vanillyloleamide ([1]; oral, at a substantially lower dose): substantially greater analgesic potency at a substantially lower dose
analgesia [2]: substantially similar reduction of inflammation and analgesic effect
reduction of inflammation [2]: substantially similar reduction of inflammation
Mean Latency Times ([3]; 75 mg/kg oral, 1.5 hr post dose): 21.8 s
Mean Latency Times ([3]; 75 mg/kg oral, 3 hr post dose): 18.9 s
Mean Latency Times ([3]; 75 mg/kg oral, 5 hr post dose): 18.7 s
Mean Latency Times ([3]; 75 mg/kg oral, 24 hr post dose): 11.2 s
Mean Latency Times ([3]; 150 mg/kg oral, 1.5 hr post dose): 30.6 s
Mean Latency Times ([3]; 150 mg/kg oral, 3 hr post dose): 18.9 s
Mean Latency Times ([3]; 150 mg/kg oral, 5 hr post dose): 15.0 s
Mean Latency Times ([3]; 150 mg/kg oral, 24 hr post dose): 11.5 s
Mean Latency Times ([3]; 300 mg/kg oral, 1.5 hr post dose): 30.7 s
Mean Latency Times ([3]; 300 mg/kg oral, 3 hr post dose): 22.6 s
Mean Latency Times ([3]; 300 mg/kg oral, 5 hr post dose): 21.0 s
Mean Latency Times ([3]; 300 mg/kg oral, 24 hr post dose): 16.5 s
potency and efficacy relative to codeine ([3]; oral): at least as potent and efficacious as the known opiate codeine
analgesia [4]: producing analogesia
reduction of inflammation [4]: reducing inflammation
% Inhibition (of paw volume/swelling vs control) ([5]; 25 mg/kg): 53.5%
% Inhibition (of paw volume/swelling vs control) ([5]; 50 mg/kg): 73.7%
% Inhibition (of paw volume/swelling vs control) ([5]; 100 mg/kg): 64.9%
% Inhibition (of paw volume/swelling vs control) ([5]; 200 mg/kg): 61.4%

CC(=O)Nc1ccc(O)cc1 [acetaminophen]
activity in the RHP system [6]: little or no activity

CC(=O)Oc1ccccc1C(=O)O [aspirin]
activity in the RHP system [6]: little or no activity

Reference: patent US5099030A, “Novel compounds, pharmaceutical compositions, and methods for treating inflammation and pain” (The Procter & Gamble Company, priority 1991, dated 1992)
